Data: article PMC8016166, “Identification of a Potent and Selective 5-HT1A Receptor Agonist with In Vitro and In Vivo Antinociceptive Activity” (ACS Chemical Neuroscience, 2020)

Tests used:
[1] = molecular target: T1, hERG (Homo sapiens, UniProt Q12809); assay: CiPA hERG QPatch assay (hERG-CHO automated patch-clamp); type: cell-based; details: human, CHO cells expressing hERG (hERG-CHO), read-out: % inhibition of tail current in hERG-CHO
T1 construct: host or cells: CHO (hERG-CHO)
Excerpt: (§1) After whole cell configuration is achieved, the cell is held at −80 mV. A 500 ms pulse to −40 mV is delivered to measure the leaking current, which is subtracted from the tail current online. Then, the cell is depolarized to +40 mV for 500 ms and then to −80 mV over a 100 ms ramp to elicit the hERG tail current. This paradigm is delivered once every 8 s to monitor the current amplitude.
(§2) The parameters measured were the maximum tail current evoked on stepping to 40 mV and ramping back to −80 mV from the test pulse. All data were filtered for seal quality, seal drop, and current amplitude. The peak current amplitude was calculated before and after compound addition, and the amount of block was assessed by dividing the Test compound current amplitude by the Control current amplitude. Control is the mean hERG current amplitude collected 15 s at the end of the control; Test Compound is the mean hERG current amplitude collected in the presence of test compound at each concentration.

[2] = molecular target: T2, human voltage gated potassium ion channel hERG (Homo sapiens, UniProt Q12809); assay: as above; type: cell-based; details: 0.1 and 1 μM, QPatch
T2 construct: host or cells: CHO (hERG-CHO)
T2 sequence (Q12809 whole entry): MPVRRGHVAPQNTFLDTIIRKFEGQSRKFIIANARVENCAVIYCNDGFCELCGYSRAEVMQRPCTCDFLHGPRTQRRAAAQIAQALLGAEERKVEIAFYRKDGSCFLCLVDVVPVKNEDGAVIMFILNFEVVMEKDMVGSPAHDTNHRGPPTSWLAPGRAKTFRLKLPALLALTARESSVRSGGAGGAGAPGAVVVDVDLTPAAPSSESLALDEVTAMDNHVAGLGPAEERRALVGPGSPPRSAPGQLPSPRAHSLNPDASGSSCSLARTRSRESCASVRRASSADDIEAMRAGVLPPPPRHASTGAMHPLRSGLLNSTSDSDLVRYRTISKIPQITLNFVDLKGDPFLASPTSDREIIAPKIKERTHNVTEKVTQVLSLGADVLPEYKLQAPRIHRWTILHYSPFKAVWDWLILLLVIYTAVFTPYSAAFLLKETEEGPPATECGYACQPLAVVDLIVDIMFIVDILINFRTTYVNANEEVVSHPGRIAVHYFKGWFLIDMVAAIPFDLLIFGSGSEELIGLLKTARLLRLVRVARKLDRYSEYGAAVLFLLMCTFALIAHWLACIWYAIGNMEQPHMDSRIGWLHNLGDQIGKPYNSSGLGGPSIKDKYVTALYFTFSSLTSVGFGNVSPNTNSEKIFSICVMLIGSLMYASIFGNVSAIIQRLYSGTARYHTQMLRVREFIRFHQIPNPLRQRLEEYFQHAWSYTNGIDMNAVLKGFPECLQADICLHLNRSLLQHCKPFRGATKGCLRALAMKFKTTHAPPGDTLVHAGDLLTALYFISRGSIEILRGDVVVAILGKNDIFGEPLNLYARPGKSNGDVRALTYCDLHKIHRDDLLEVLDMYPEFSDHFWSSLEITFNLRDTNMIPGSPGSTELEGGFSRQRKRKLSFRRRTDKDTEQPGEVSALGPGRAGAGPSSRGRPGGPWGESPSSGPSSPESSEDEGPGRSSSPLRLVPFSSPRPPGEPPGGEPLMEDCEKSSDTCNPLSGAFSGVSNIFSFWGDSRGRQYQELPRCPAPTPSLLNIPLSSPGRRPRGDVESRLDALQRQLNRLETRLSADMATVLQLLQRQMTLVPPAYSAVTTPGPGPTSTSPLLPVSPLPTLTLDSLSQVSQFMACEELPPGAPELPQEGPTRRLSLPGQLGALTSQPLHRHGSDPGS
Excerpt: as §1, §2

[3] = system: superficial dorsal horn neurons (lamina I–II); assay: Patch-clamp recording from spinal cord slices; type: cell-based, mouse; details: for neurons showing slow outward current: voltage clamp −60 mV
Experimental: The Italian Ministry of Health approved all the experiments that were conducted on postnatal CD1 mice (P18–P25) in accordance with the Guide for the Care and Use of Laboratory Animals and the EU and Italian regulations on animal welfare. The spinal cord slices were obtained following the procedure described previously.[69],[70] Briefly, the animals were anesthetized with isoflurane and decapitated, the spinal cord and vertebrae were rapidly removed and placed in ice-cold dissecting Krebs’ solution (composition in mM:125 NaCl, 2.5 KCl, 1.25 NaH2PO4, 26 NaHCO3, 25 glucose, 6 MgCl2, 1.5 CaCl2, and 1 kynurenic acid, pH 7.4, 320 mOsm), bubbled with 95% O2, 5% CO2. The lumbar spinal cord was isolated, embedded in an agarose block (low melting point agarose 3%, Thermo Fisher Scientific, Waltham, USA), and transverse slices (500 μm thick) were obtained using a vibrating microtome (WPI, Sarasota, USA). The slices were incubated in oxygenated incubation Krebs’ solution (the same as dissecting but without kynurenic acid) at 35 °C for 30 min and used for recording. The Patch-clamp recording in whole-cell configuration was performed on lamina I–II neurons at room temperature. The slices were perfused at 2 mL/min with recording Krebs’solution (in mM: 125 NaCl, 2.5 KCl, 1.25 NaH2PO4, 26 NaHCO3, 25 glucose, 1 MgCl2, and 2 CaCl2, pH 7.4, 320 mOsm). Recordings of post-synaptic currents (EPSCs) were performed in voltage clamp, by using an intracellular solution with the following composition (in mM): 120 potassium methanesulfonate, 10 NaCl, 10 EGTA, 1 CaCl2, 10 HEPES, 5 ATP-Mg, pH adjusted to 7.2 with KOH, osmolarity 300 mOsm. 8-OH-DPAT was obtained from Sigma-Aldrich (Saint Louis, USA). The data were recorded and acquired using a Multiclamp 700A amplifier and the pClamp 10 software (Molecular Devices, Sunnyvale, USA). The sampling rate was 10 kHz, and the data were filtered at 2 kHz. The data were analyzed off-line using pClamp10 software and Minianalysis (Synaptosoft, USA). The data are expressed as the mean ± SEM and differences were considered significant for p < 0.05. The statistical significance for the effect on EPSC frequency was determined using the Kolmogorov–Smirnov test on individual neurons.

[4] = system: 5-HT1AR; parameters: method as in PMID 30043643; details: previous work, cited from earlier work; for potency pD2: agonist, GTPγS assay
[5] = molecular target: 5-HT1AR; parameters: method as in PMID 30043643; details: previous work; cited from earlier work
[6] = system: Male Swiss CB1 mice; assay: Formalin test; type: in vivo, mouse
Experimental: Male Swiss CB1 mice (Envigo, S. Pietro al Natisone (UD)) weighing 25–30 g were used. The animals were kept at a constant room temperature (25 ± 1 °C) under a 12:12 h light and dark cycle, with free access to food and water. Each mouse was used for only one experiment. […] All the tests were performed blind to treatment.
The formalin (5%, 10 μL; Sigma-Aldrich) was injected subcutaneously into the plantar side of the right hind paw.[68] After injection, the mice were immediately placed in a plexiglas box: the total time (in seconds) spent on licking or biting the injected hind paw was recorded every 5 min at selected intervals, 0–10 (phase I) and 10–60 (phase II) min, in the different experimental groups, as an indicator of nociceptive behavior. […] A mean response was then calculated for each phase. […] A vehicle solution containing 10% DMSO was given as a control. Morphine was used as positive control. The test compound and vehicle were […] (i.p.) administered (5 mL/kg) 15 min before the formalin. […] The data are expressed as mean values (SEM). Analyses of variance (two-way repeated measures ANOVA followed by post hoc Bonferroni test) were performed to assess significance using the Instat 3.0 software (GraphPad Software, San Diego, CA). p < 0.05 was considered significant.

[7] = system: MDCK-MDR1 monolayers; parameters: method as in PMID 30043643; details: cited from earlier work

T1 sequence (Q12809 whole entry): as above

Row | Structure (SMILES) | inhibition at 0.1 µM ([1]; 0.1 μM) | inhibition at 1 µM ([1]; 1 μM) | inhibition at 10 µM ([1]; 10 μM) | hERG inhibition [2] | neurons showing sEPSC frequency decrease ([3]; 10 μM) | neurons showing outward current in presence of naloxone ([3]; 10 μM (S)-1, naloxone present) | neurons showing significant decrease in sEPSC frequency in presence of naloxone ([3]; 10 μM (S)-1, naloxone present) | outward current in presence of WAY-100635 ([3]; (S)-1 with WAY-100635 10 μM, 7 neurons tested) | neurons showing slow outward current ([3]; bath application 10 μM) | potency pD2 [4] | relative effectiveness (Emax) [4] | 5-HT1AR affinity pKi [5] | analgesic effect in first and second phases of the formalin test ([6]; 10 mg/kg i.p., formalin 5% 10 μL intraplantar) | analgesic effect after pretreatment with WAY-100635 ([6]; 1 10 mg/kg i.p., WAY-100635 3 mg/kg i.p. 30 min before, second phase) | efflux ratio ([7]; MDCK-MDR1 monolayers) | permeation of MDCK-MDR1 monolayers mimicking the BBB [7] | neurons showing sEPSC frequency decrease ([3]; 50 μM) | neurons showing slow outward current ([3]; 50 μM)
1 | c1ccc(C2(c3ccccc3)OC[C@H](CNCCOc3ccccc3-c3ccncc3)O2)cc1 [(S)-1, N-[(2,2-Diphenyl-1,3-dioxolan-4-yl)methyl]-2-[2-(pyridin-4-yl)phenoxy]ethan-1-ammonium hydrogenoxalate] | -3.35% | 5.61% | 66.7% | does not inhibit hERG | 5 out of 12 | 5 out of 12 | 6 out of 12 | failed to evoke the outward currents | 5 out of 12 |  |  |  |  |  |  |  |  | 
2 | Cn1cncc1-c1ccccc1OCCNCC1COC(c2ccccc2)(c2ccccc2)O1 (racemic) [rac-2, N-((2,2-diphenyl-1,3-dioxolan-4-yl)methyl)-2-(2-(1-methyl-1H-imidazol-5-yl)phenoxy)ethan-1-ammonium hydrogenoxalate] |  |  |  |  |  |  |  |  |  | 5.46 | 240% | 8.98 |  |  |  |  |  | 
3 | c1ccc(C2(c3ccccc3)OCC(CNCCOc3ccccc3-c3ccncc3)O2)cc1 (racemic) [rac-1, N-[(2,2-diphenyl-1,3-dioxolan-4-yl)methyl]-2-[2-(pyridin-4-yl)phenoxy]ethan-1-ammonium hydrogenoxalate] |  |  |  |  |  |  |  |  | not effective | 8.83 |  | 9.2 | significant analgesic effects | prevented its analgesic effect | low | permeate, by passive diffusion | 7 out of 23 | 5 out of 23
